In US20130280388A1, “Solid Food Products and Methods of Their Preservation” (priority 2012, published 2013):

Columns and labels:
Salmonellae [1] = test: Salmonellae log reduction in frozen pot pie filling containing 4-HBITC cooked in a microwave oven (plate count); format: cell-based; design: key to Synergistic effect Yes/No: Yes: reduction in microbial counts due to the simultaneous action of 4-HBITC and microwave heating is greater than the sum of the individual reductions in microbial counts due to 4-HBITC and microwave heating, a synergistic effect is considered to be present (YES); No: reduction in microbial counts due to the simultaneous action of 4-HBITC and microwave heating is equal to or less than the sum of the individual reductions in microbial counts due to 4-HBITC and due to microwave heating, a synergistic effect is considered to be absent (NO); settings: for Synergistic effect Yes/No: 180 sec
Source text: (§1) Pot pie fillings made up of both Salmonellae inoculated particulates and gravy carrying the 4-hydroxybenzyl isothiocyanate (4-HBITC) in white mustard essential oil (WMEO), is used to evaluate the effect of 4-HBITC in a heterogeneous food system. Standing overnight cultures of five strains of Salmonellae are used to inoculate, at two different levels, mixtures of frozen vegetable and chicken particulates containing about 62% chicken, 17% carrot, 15% potato and 2% peas, as described in Example 2, all by weight of the total particulate mixture. The high level contains about 6 log colony forming units (cfu)/gm while the medium level contains about 3 log cfu/gm of Salmonellae. Bags containing the inoculated cultures and the particulates are gently inverted and rolled to ensure uniform coating of the particulates and the inoculated particles are then stored at −28° C. for 24 hours before being mixed with sauce containing white mustard essential oil (WMEO).
(§2) Sauce as made in Example 2 is used as the vehicle for WMEO. From a 2.4% 4-HBITC in WMEO stock solution in peanut oil made as described in Example 1, accurate amounts are weighed out such that 400 g of the pie filling comprising 36% of the particulates and 64% of the gravy will have 750, 562.5 or 250 ppm, 4-HBITC when mixed together. The particulates and the sauce are first put together in a sterile bowl and the WMEO in peanut oil added to the mixture and mixed gently for about 1 minute. The control (0 ppm 4-HBITC samples have only the vegetable oil added to them before mixing. The completed pie fillings are then immediately frozen at −28° C. for 48 hours before the second stage of the experiment.
(§3) To enumerate the accurate Salmonellae count prior to freezing, a sample is removed from each of the mixed pie fillings, including the control, and diluted at a ratio of 1:10 with Butterfields buffer and homogenized using a stomacher. The homogenized and diluted sample is suitably diluted further to obtain the appropriate number of bacterial colonies per plate and plated in triplicate on trypticase soy agar with yeast extract and allowed to stabilize for 30-60 minutes. The plates are then over-laid with xyline-lysine-deoxycholate (XLD) agar to resuscitate and recover injured cells and incubated at 35° C. for 48 hours before counting the colonies.
(§4) In the second stage of the experiment, the frozen pie fillings are cooked in 700 W or 1100 W microwave ovens. During cooking, samples are removed from the pie fillings at 15, 45, 60, 90 120, 180 and 240 seconds. At each of these time points, the surviving microbial counts are enumerated by removing discrete 25 g samples and plating them in the manner described above. To determine the effect of 4-HBITC only, each of the treatments and the control is thawed to room temperature and triplicate samples are used to enumerate the surviving microorganisms as detailed above.
(§5) The microbial reductions resulting from the treatments is attributed to the simultaneous action of microwave heating and 4-HBITC while microbial reductions occurring in the 0 ppm 4-HBITC containing control sample is attributed to microwave heating only. If the reduction in microbial counts due to the simultaneous action of 4-HBITC and microwave heating is greater than the sum of the individual reductions in microbial counts due to 4-HBITC and microwave heating, a synergistic effect is considered to be present (YES). If the reduction in microbial counts due to the simultaneous action of 4-HBITC and microwave heating is equal to or less than the sum of the individual reductions in microbial counts due to 4-HBITC and due to microwave heating, a synergistic effect is considered to be absent (NO).

Salmonellae [2] = test: Salmonellae log reduction in pot pie filling by 4-HBITC only (frozen filling thawed to room temperature, plate count); format: cell-based
Source text: as §1, §2, §3, §4, §5

[3] = 250 ppm 4-HBITC, inoc. level H, MW power 700 Watts
[4] = 250 ppm 4-HBITC, inoc. level H, MW power 1100 Watts
[5] = 250 ppm 4-HBITC, inoc. level M, MW power 700 Watts
[6] = 250 ppm 4-HBITC, inoc. level M, MW power 1100 Watts
[7] = 562.5 ppm 4-HBITC, inoc. level H, MW power 700 Watts
[8] = 562.5 ppm 4-HBITC, inoc. level H, MW power 1100 Watts
[9] = 562.5 ppm 4-HBITC, inoc. level M, MW power 700 Watts
[10] = 562.5 ppm 4-HBITC, inoc. level M, MW power 1100 Watts
[11] = 750 ppm 4-HBITC, inoc. level H, MW power 700 Watts
[12] = 750 ppm 4-HBITC, inoc. level H, MW power 1100 Watts
[13] = 750 ppm 4-HBITC, inoc. level M, MW power 700 Watts
[14] = 750 ppm 4-HBITC, inoc. level M, MW power 1100 Watts

Structure (SMILES): Oc1ccc(CN=C=S)cc1 [4-HBITC, 4-hydroxybenzyl isothiocyanate]
- log reductions (180 sec) due to Simultaneous action of 4-HBITC & heat (Salmonellae [1]; [3]): 1.11 log
- Synergistic effect Yes/No (Salmonellae [1]; [3]): No
- log reductions (180 sec) due to Simultaneous action of 4-HBITC & heat (Salmonellae [1]; [4]): 1.63 log
- Synergistic effect Yes/No (Salmonellae [1]; [4]): Yes
- log reductions (180 sec) due to Simultaneous action of 4-HBITC & heat (Salmonellae [1]; [5]): 1.42 log
- Synergistic effect Yes/No (Salmonellae [1]; [5]): No
- log reductions (180 sec) due to Simultaneous action of 4-HBITC & heat (Salmonellae [1]; [6]): 1.38 log
- Synergistic effect Yes/No (Salmonellae [1]; [6]): No
- log reductions (180 sec) due to Simultaneous action of 4-HBITC & heat (Salmonellae [1]; [7]): 2.97 log
- Synergistic effect Yes/No (Salmonellae [1]; [7]): Yes
- log reductions (180 sec) due to Simultaneous action of 4-HBITC & heat (Salmonellae [1]; [8]): 5.25 log
- Synergistic effect Yes/No (Salmonellae [1]; [8]): Yes
- log reductions (180 sec) due to Simultaneous action of 4-HBITC & heat (Salmonellae [1]; [9]): 4.38 log
- Synergistic effect Yes/No (Salmonellae [1]; [9]): Yes
- log reductions (180 sec) due to Simultaneous action of 4-HBITC & heat (Salmonellae [1]; [10]): 4.38 log
- Synergistic effect Yes/No (Salmonellae [1]; [10]): Yes
- log reductions (180 sec) due to Simultaneous action of 4-HBITC & heat (Salmonellae [1]; [11]): 5.25 log
- Synergistic effect Yes/No (Salmonellae [1]; [11]): Yes
- log reductions (180 sec) due to Simultaneous action of 4-HBITC & heat (Salmonellae [1]; [12]): 1.56 log
- Synergistic effect Yes/No (Salmonellae [1]; [12]): No
- log reductions (180 sec) due to Simultaneous action of 4-HBITC & heat (Salmonellae [1]; [13]): 4.38 log
- Synergistic effect Yes/No (Salmonellae [1]; [13]): Yes
- log reductions (180 sec) due to Simultaneous action of 4-HBITC & heat (Salmonellae [1]; [14]): 4.38 log
- Synergistic effect Yes/No (Salmonellae [1]; [14]): Yes
- log reductions (180 sec) due to 4-HBITC only (Salmonellae [2]; [3]): 0.74 log
- log reductions (180 sec) due to 4-HBITC only (Salmonellae [2]; [4]): 1.05 log
- log reductions (180 sec) due to 4-HBITC only (Salmonellae [2]; [5]): 1.15 log
- log reductions (180 sec) due to 4-HBITC only (Salmonellae [2]; [6]): 1.1 log
- log reductions (180 sec) due to 4-HBITC only (Salmonellae [2]; [7]): 1.59 log
- log reductions (180 sec) due to 4-HBITC only (Salmonellae [2]; [8]): 1.59 log
- log reductions (180 sec) due to 4-HBITC only (Salmonellae [2]; [9]): 2.4 log
- log reductions (180 sec) due to 4-HBITC only (Salmonellae [2]; [10]): 2.4 log
- log reductions (180 sec) due to 4-HBITC only (Salmonellae [2]; [11]): 2.03 log
- log reductions (180 sec) due to 4-HBITC only (Salmonellae [2]; [12]): 2.14 log
- log reductions (180 sec) due to 4-HBITC only (Salmonellae [2]; [13]): 2.4 log
- log reductions (180 sec) due to 4-HBITC only (Salmonellae [2]; [14]): 2.64 log
